Read-outs that look alike come from different tables or passages of the source.

This test addresses T1, porcine pancreatic elastase (Sus scrofa, UniProt P00772).
T1 construct: purchased Sigma n.E. 0.127
Nature of the test: antielastase activity (method of Bieth and coll., cleavage of N-succinyl-L-alanyl-L-alanyl-L-alanyl-para-nitroanilide, UV at 410 nm). The format is biochemical. The protocol:
The antielastase activity of compounds (I) was evidenced by the method described by Bieth and coll. (Biochim. med. [formula] 350 (1974)), with slight changes when the test compounds were poorly water-soluble.
The determination of the antielastase activity was carried out using porcine pancreatic elastase (90 U/mg/weight; 120 U/mg protein-biuret-n.E. 0.127 Sigma) as the enzyme in solution. The enzyme-containing solution was prepared dissolving the enzyme in 0,2 M phosphate buffer, pH 8, to a final concentration of 1 microgram/ml.
The substrate solution was N-succinyl-L-alanyl-L-alanyl-L-alanyl-para-nitroanilide (available from Sigma cat. N.S. 4760). The substrate was dissolved in dimethylsulfoxide to a concentration of […] (125 mM).
The procedure to determine the antielastase activity consisted of the following steps: • 2,9 ml of the enzyme solution with antielastase activity were placed into a quartz cuvette with 10 mm optical path, then 0,5 ml of bidistilled water were added. This standard solution was subsequently added with the different solutions of the various inhibitors.
The test solutions (standard and standard + inhibitor) were incubated at 30°C for 10', then 20 µl of substrate were added and the solution in the cuvette was stirred. The UV spectrum was recorded at 410 nm for 10' with a Beckman mod. 24 spectrophotometer against a blank consisting of the same enzyme-free standard solution.

[1] abbreviates: enzyme 1 microgram/ml in 0,2 M phosphate buffer, pH 8, incubated at 30°C for 10', read-out: I₅₀ (converted).

T1 sequence (P00772 27-266): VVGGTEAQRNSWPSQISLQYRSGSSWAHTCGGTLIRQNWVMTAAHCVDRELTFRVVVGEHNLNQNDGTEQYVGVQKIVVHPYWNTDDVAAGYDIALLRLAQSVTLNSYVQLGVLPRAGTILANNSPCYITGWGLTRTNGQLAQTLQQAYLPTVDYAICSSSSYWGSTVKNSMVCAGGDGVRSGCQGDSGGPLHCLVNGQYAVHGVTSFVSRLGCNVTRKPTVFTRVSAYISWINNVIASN

As to `C[C@@H]1O[C@@H](OC[C@H]2O[C@@H](Oc3c(-c4ccc(O)c(O)c4)oc4cc(O)cc(O)c4c3=O)[C@H](O)[C@@H](O)[C@@H]2O)[C@H](O)[C@H](O)[C@H]1O` [Rutin], under setting [1], the IC50 is 983 µM.

The molecule `COc1ccc([C@@H]2CC(=O)c3c(O)cc(O[C@@H]4O[C@H](CO[C@@H]5O[C@@H](C)[C@H](O)[C@@H](O)[C@H]5O)[C@@H](O)[C@H](O)[C@H]4O)cc3O2)cc1O` [Esperidin] had an IC50 of 934 µM.

On to `COc1ccc(-c2cc(=O)c3c(O)cc(O[C@@H]4O[C@H](CO[C@@H]5O[C@@H](C)[C@H](O)[C@@H](O)[C@H]5O)[C@@H](O)[C@H](O)[C@H]4O)cc3o2)cc1OCCO` [Hydrosmin, 3'-hydroxyethyldiosmin], for which, under setting [1], the IC50 was 955 µM.

`COc1ccc(-c2cc(=O)c3c(O)cc(O[C@@H]4O[C@H](CO[C@@H]5O[C@@H](C)[C@H](O)[C@@H](O)[C@H]5O)[C@@H](O)[C@H](O)[C@H]4O)cc3o2)cc1O` [Diosmin]: the antielastase activity entry (at the minimum concentration obtained (about 10 mg/ml)) is “absence of any antielastase activity”.

The record behind these values is patent EP0505937A1, “Flavone derivatives, a process for the preparation thereof and pharmaceutical compositions containing them” (GEYMONAT S.p.A., priority 1991, dated 1992).
